SMILES strings stand for the structures. Bounds are passed on as bounds.

What is called IC50 is the concentration needed to halve the response being measured.

Sequence of TNFα (P01375 77-233 limits assumed): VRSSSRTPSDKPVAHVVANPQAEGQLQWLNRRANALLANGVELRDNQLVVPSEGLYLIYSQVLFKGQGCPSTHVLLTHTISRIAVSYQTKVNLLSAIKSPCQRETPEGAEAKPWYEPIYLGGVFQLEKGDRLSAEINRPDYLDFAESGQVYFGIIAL

For the test, the target named is TNFα (Homo sapiens, UniProt P01375). Nature of the test: TNFα Induced HEK Blue Cellular Assay. The class given is cell-based. The note with it: HEK Blue TNFα reporter cells, TNFα 100 pg/ml, 24 hrs at 37° C., secreted alkaline phosphatase (QUANTI-Blue) read at 620 nm; read-out: IC50 value. The procedure:
TNFα Induced HEK Blue Cellular Assay
Test articles were diluted in DMSO and serially diluted into 384 well assay plate (Corning 3765), at final concentrations ranging from […] to 0.5 nM. HEK Blue™ TNFα reporter cells were added at a final density of 10,000 cell per well in assay media [DMEM (Gibco, cat #21063-029), 10% fetal bovine serum (ExcelBio, cat #FND500), 1% Penicillin-Streptomycin (Solarbio, cat #P1400-100]. TNFα (R&D 210-TA-020/CF) was then added to the assay plate at a final concentration of 100 pg/ml. This plate was then incubated for 24 hrs at 37° C. and 5% CO2. Secreted alkaline phosphatase expression was then measured using QUANTI-Blue™ (Invivogen), according to manufacturer instructions and read on an Envision microplate reader at 620 nm.
Inhibition data for test compound over a range of concentration was plotted as percentage inhibition of the test compound (100%=maximum inhibition). IC50 values were determined after correcting for background [(sample read−mean of low control)/(mean of high control−mean of low control)] where by the low control is DMSO without stimulation and high control is DMSO with stimulation. The IC50 is defined as the concentration of test compound which produces 50% inhibition and was quantified using the 4 parameter logistic equation to fit the data.
Regarding `Cc1cc(P(C)(C)=O)ccc1-c1ccc2nc3n(c2c1)[C@@H]1C[C@H]3N(C)C(=O)c2cccc(OC(F)F)c21` [Example 29, (1R,11R)-18-(difluoromethoxy)-5-[4-(dimethylphosphoryl)-2-methylphenyl]-12-methyl-2,9,12-triazapentacyclo[9.8.1.0^{2,10}.0^{3,8}.0^{14,19}]icosa-3(8),4,6,9,14(19),15,17-heptaen-13-one], the IC50 is less than 100 nM.
Next, `CN(CP(C)(C)=O)c1ccc(-c2ccc3nc4n(c3c2)[C@@H]2C[C@H]4N(C)C(=O)c3cccc(OC(F)F)c32)cn1` [Example 30, (1R,11R)-18-(difluoromethoxy)-5-(6-{[(dimethylphosphoryl)methyl](methyl)amino}pyridin-3-yl)-12-methyl-2,9,12-triazapentacyclo[9.8.1.0^{2,10}.0^{3,8}.0^{14,19}]icosa-3(8),4,6,9,14(19),15,17-heptaen-13-one]: less than 100 nM.
Next, `CP(C)(=O)c1ccc(-c2ccc3nc4n(c3c2)[C@@H]2C[C@H]4NC(=O)c3cccc(OC(F)F)c32)c(F)c1` [Example 31, (1R,11R)-18-(difluoromethoxy)-5-[4-(dimethylphosphoryl)-2-fluorophenyl]-2,9,12-triazapentacyclo[9.8.1.0^{2,10}.0^{3,8}.0^{14,19}]icosa-3(8),4,6,9,14(19),15,17-heptaen-13-one]: less than 100 nM; `Cc1cc(P(C)(C)=O)ccc1-c1ccc2nc3n(c2c1)[C@@H]1C[C@H]3NC(=O)c2cccc(OC(F)F)c21` [Example 32, (1R,11R)-18-(difluoromethoxy)-5-[4-(dimethylphosphoryl)-2-methylphenyl]-2,9,12-triazapentacyclo[9.8.1.0^{2,10}.0^{3,8}.0^{14,19}]icosa-3(8),4,6,9,14(19),15,17-heptaen-13-one]: less than 100 nM.
Next, `CN1C(=O)c2cccc(OC(F)F)c2[C@H]2C[C@@H]1c1nc3ccc(-c4ccc(CP(C)(C)=O)cc4)cc3n12` [Example 33, (1R,11R)-18-(difluoromethoxy)-5-{4-[(dimethylphosphoryl)methyl]phenyl}-12-methyl-2,9,12-triazapentacyclo[9.8.1.0^{2,10}.0^{3,8}.0^{14,19}]icosa-3(8),4,6,9,14(19),15,17-heptaen-13-one]: less than 100 nM; `CP(C)(=O)c1ccc(-c2ccc3nc4n(c3c2)[C@@H]2C[C@H]4NC(=O)c3cccc(OC(F)F)c32)c(F)c1F` [Example 34, (1R,11R)-18-(difluoromethoxy)-5-[4-(dimethylphosphoryl)-2,3-difluorophenyl]-2,9,12-triazapentacyclo[9.8.1.0^{2,10}.0^{3,8}.0^{14,19}]icosa-3(8),4,6,9,14(19),15,17-heptaen-13-one]: less than 100 nM; `CP(C)(=O)c1c(F)cc(-c2ccc3nc4n(c3c2)[C@@H]2C[C@H]4NC(=O)c3cccc(OC(F)F)c32)cc1F` [Example 35, (1R,11R)-18-(difluoromethoxy)-5-[4-(dimethylphosphoryl)-3,5-difluorophenyl]-2,9,12-triazapentacyclo[9.8.1.0^{2,10}.0^{3,8}.0^{14,19}]icosa-3(8),4,6,9,14(19),15,17-heptaen-13-one]: 100 to 1000 nM.
For `CN1C(=O)c2cccc(OC(F)F)c2[C@H]2C[C@@H]1c1nc3ccc(-c4ccc(P(C)(C)=O)c(F)c4F)cc3n12` [Example 36, (1R,11R)-18-(difluoromethoxy)-5-[4-(dimethylphosphoryl)-2,3-difluorophenyl]-12-methyl-2,9,12-triazapentacyclo[9.8.1.0^{2,10}.0^{3,8}.0^{14,19}]icosa-3(8),4,6,9,14(19),15,17-heptaen-13-one], the IC50 was less than 100 nM.
Turning to `CN1C(=O)c2cccc(OC(F)F)c2[C@H]2C[C@@H]1c1nc3ccc(-c4cc(F)c(P(C)(C)=O)c(F)c4)cc3n12` [Example 37, (1R,11R)-18-(difluoromethoxy)-5-[4-(dimethylphosphoryl)-3,5-difluorophenyl]-12-methyl-2,9,12-triazapentacyclo[9.8.1.0^{2,10}.0^{3,8}.0^{14,19}]icosa-3(8),4,6,9,14(19),15,17-heptaen-13-one], the 50% inhibitory concentration (IC50) is less than 100 nM.

Source of the values: patent US12384808B2, “Modulators of TNF-α activity” (Forward Therapeutics, Inc., priority 2022, dated 2025).
